Laboratory results taken from patent US11208377B2, “3,4-disubstituted 3-cyclobutene-1,2-diones and use thereof” (ALLERGAN, INC., priority 2017, dated 2021).

Biological target: human CCR6 (Homo sapiens (Human), UniProt P51684)
Test: Calcium activity assay on the FLIPR Tetra in HEK-Gqi5 cells stably expressing human CCR6 (MIP3α as positive control agonist)
Type: cell-based
Description: HEK-Gqi5 cells stably expressing human CCR6 were cultured in DMEM high glucose, 10% FBS, 1% PSA, 400 ug/ml geneticin and 50 ug/ml hygromycin. Appropriate positive control chemokine (MIP3α) was used as the positive control agonist for screening compound-induced calcium activity assayed on the FLIPR^Tetra. The drug plates were prepared in 384-well microplates using the EP3 and the MultiPROBE robotic liquid handling systems. Compounds disclosed herein were tested for CCR6 activity.

Chain of human CCR6 (P51684 whole entry): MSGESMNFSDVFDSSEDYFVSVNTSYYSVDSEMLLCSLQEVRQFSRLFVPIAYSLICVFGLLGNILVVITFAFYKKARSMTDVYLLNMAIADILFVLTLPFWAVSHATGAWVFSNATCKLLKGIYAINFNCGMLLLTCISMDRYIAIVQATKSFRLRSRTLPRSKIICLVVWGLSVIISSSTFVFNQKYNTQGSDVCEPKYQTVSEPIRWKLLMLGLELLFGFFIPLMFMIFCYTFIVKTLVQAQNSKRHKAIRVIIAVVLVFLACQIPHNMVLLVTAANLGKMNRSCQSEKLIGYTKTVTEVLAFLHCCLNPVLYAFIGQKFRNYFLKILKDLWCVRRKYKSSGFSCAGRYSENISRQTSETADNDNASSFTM

Row | Structure (SMILES) | CCR6 % Antagonism [%] | IC50 [µM]
1 | CN1CCN(S(=O)(=O)c2c(Cl)ccc(Nc3c(NC4c5ccoc5CCC4(C)C)c(=O)c3=O)c2O)CC1 (stereo not shown) [Compound 49, 3-((4-chloro-2-hydroxy-3-((4-methylpiperazin-1-yl)sulfonyl)phenyl)amino)-4-((5,5-dimethyl-4,5,6,7-tetrahydrobenzofuran-4-yl)amino)cyclobut-3-ene-1,2-dione] | 98 | 0.031
2 | CCC(C)(Nc1c(Nc2ccc(Cl)c(C(=O)N(C)C)c2O)c(=O)c1=O)c1ccccc1 (stereo not shown) [Compound 72, 6-chloro-3-((3,4-dioxo-2-((2-phenylbutan-2-yl)amino)cyclobut-1-en-1-yl)amino)-2-hydroxy-N,N-dimethylbenzamide] | 95 | 0.046
